Assay results taken from patent US20060035901A1, “Methotrexate derivatives useful for treating cancer and arthritis” (Serenex, Inc., priority 2004, published 2006).
pIC50: −log10 of the molar value.

Experiments:
[1] = biological target: T1, pyruvate carboxylase (PYC) (Sus scrofa, UniProt A0A8W4F6F0); test: Elution of PYC from ATP-Sepharose column loaded with porcine liver proteome, IC50 estimate; type: binding; details: estimated from percent of protein eluted from ATP-Sepharose column, read-out: Approximate IC50 for PYC
T1 construct: a porcine liver proteome was run over an ATP-Sepharose™ column; from tissue; host or cells: porcine liver
T1 sequence (A0A8W4F6F0 1-1157): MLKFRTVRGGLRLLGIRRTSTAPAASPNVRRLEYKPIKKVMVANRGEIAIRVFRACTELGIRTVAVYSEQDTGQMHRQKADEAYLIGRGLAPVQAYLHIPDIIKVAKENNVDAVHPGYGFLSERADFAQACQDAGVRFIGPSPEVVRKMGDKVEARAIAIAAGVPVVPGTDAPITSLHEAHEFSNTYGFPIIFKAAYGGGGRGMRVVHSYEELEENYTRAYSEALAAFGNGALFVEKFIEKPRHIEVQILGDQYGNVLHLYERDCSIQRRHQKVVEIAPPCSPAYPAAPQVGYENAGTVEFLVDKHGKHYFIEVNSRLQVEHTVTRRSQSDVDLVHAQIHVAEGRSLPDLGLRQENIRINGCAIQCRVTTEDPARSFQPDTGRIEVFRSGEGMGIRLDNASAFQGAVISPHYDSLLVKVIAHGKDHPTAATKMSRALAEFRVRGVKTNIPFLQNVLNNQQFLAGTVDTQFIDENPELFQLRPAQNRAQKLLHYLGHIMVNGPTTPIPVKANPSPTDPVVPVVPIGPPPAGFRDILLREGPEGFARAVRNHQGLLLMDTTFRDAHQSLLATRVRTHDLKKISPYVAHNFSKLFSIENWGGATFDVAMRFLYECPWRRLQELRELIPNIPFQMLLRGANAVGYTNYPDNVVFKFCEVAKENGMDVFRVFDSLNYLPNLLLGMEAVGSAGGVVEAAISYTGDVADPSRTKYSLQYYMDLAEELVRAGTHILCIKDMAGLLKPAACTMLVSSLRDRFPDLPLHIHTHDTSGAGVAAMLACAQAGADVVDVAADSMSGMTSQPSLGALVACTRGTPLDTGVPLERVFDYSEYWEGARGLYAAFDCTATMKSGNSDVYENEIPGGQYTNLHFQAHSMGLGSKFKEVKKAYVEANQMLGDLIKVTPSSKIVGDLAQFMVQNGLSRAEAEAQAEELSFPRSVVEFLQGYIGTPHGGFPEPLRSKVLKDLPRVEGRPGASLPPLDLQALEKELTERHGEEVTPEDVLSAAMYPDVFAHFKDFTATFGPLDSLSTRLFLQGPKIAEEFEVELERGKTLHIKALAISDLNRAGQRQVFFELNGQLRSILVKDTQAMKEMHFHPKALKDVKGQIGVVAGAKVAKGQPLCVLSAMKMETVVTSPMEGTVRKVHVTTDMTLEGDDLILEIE
Method: Similar experiments were carried out to compare the IC50 values for PYC, PCCA, and PCCB. In these trials, a porcine liver proteome was run over an ATP-Sepharose™ column to bind all purine-binding proteins. The ATP-Sepharose™ column was washed several times, and then eluted with the compound of Formula III at concentrations of 1 μM, 5 μM, 10 μM, 50 μM, 100 μM, and 500 μM to identify proteins that bound to this compound. (The amount of protein eluted at the higher concentration ranges plateaued, thus confirming that the entire fraction of bound protein had been eluted.) The eluted fractions were run on a 1-dimensional SDS polyacrylamide gel.
(§1) Gels were stained with a fluorescent stain such as sypro ruby (a highly sensitive fluorescent protein stain that can readily detect less than 1 fmol of total protein, i.e., less than 0.04 ng for a 40 kDa protein). The gels were imaged using a standard flat bed gel imager and the amount of protein estimated by densiometry. The percent of protein eluted from the column at each concentration was determined and IC50 values were calculated from these estimates. Where necessary, the eluted proteins were cut out of the gel, and identified using mass spectral techniques.
These steps were repeated with each of the compounds of Formulas IV-X, MTX, and the c series derivative. The values obtained were then compared to those for DHFR.

[2] = biological target: T2, propionyl-CoA carboxylase subunit alpha (PCCA) (Sus scrofa, UniProt P0DTA4); test: Elution of PCCA from ATP-Sepharose column loaded with porcine liver proteome, IC50 estimate; type: binding; details: estimated from percent of protein eluted from ATP-Sepharose column, read-out: Approximate IC50 for PCCA
T2 construct: a porcine liver proteome was run over an ATP-Sepharose™ column; from tissue; host or cells: porcine liver
T2 sequence (P0DTA4 53-730): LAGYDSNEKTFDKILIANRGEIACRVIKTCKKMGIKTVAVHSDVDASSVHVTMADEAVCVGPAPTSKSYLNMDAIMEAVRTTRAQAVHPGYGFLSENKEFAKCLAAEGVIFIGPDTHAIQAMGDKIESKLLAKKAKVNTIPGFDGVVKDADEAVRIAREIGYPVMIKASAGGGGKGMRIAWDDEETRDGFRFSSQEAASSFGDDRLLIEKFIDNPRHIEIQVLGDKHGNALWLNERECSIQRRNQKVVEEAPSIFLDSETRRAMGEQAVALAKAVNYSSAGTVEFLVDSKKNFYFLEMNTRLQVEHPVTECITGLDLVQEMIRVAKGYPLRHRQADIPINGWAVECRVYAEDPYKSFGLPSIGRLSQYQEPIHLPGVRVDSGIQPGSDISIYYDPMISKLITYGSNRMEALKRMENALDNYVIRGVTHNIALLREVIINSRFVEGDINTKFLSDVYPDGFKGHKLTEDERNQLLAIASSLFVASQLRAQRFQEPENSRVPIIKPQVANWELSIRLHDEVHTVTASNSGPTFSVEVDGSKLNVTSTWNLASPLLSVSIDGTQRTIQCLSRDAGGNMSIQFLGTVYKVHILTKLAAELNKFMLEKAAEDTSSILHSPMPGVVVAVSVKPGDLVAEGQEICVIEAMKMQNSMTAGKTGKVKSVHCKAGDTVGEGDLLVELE
T2 sequence (P79384 29-539 partner): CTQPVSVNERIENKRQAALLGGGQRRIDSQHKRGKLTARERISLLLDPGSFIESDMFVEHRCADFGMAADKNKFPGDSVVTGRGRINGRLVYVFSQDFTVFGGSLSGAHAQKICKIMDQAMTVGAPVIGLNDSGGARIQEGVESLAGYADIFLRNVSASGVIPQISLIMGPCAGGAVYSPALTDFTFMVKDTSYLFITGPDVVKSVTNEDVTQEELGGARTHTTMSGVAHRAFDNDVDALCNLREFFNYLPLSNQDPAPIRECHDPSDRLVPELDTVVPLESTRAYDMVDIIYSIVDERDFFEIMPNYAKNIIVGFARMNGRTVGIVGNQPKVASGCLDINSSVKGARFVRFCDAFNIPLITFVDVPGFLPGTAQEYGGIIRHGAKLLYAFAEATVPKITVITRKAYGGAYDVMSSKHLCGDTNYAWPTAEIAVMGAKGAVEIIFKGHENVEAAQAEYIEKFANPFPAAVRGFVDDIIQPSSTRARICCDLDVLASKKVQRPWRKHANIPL
Method: (§2) Similar experiments were carried out to compare the IC50 values for PYC, PCCA, and PCCB. In these trials, a porcine liver proteome was run over an ATP-Sepharose™ column to bind all purine-binding proteins. The ATP-Sepharose™ column was washed several times, and then eluted with the compound of Formula III at concentrations of 1 μM, 5 μM, 10 μM, 50 μM, 100 μM, and 500 μM to identify proteins that bound to this compound.
as §1
(§3) The values obtained were then compared to those for DHFR.

[3] = biological target: T3, propionyl-CoA carboxylase subunit beta (PCCB) (Sus scrofa, UniProt P79384); test: Elution of PCCB from ATP-Sepharose column loaded with porcine liver proteome, IC50 estimate; type: binding; details: estimated from percent of protein eluted from ATP-Sepharose column, read-out: Approximate IC50 for PCCB
T3 construct: a porcine liver proteome was run over an ATP-Sepharose™ column; from tissue; host or cells: porcine liver
T3 sequence (P79384 29-539): T2 sequence (P79384 29-539 partner)
T3 sequence (P0DTA4 53-730 partner): T2 sequence (P0DTA4 53-730)
Method: as §2, §1, §3

[4] = biological target: Her2 (Homo sapiens, UniProt P04626); test: Elution of Her2 from ATP-Sepharose column by compound (Proteome Mining), IC50 estimate; type: binding; details: estimated from percent of protein eluted from ATP-Sepharose column, gel densitometry; read-out: Approximate IC50 for Her2
Method: as §1, with “A proteome containing a known quantity of Her2, EGFR, and B-Raf was run over an ATP-Sepharose™ column in order to bind all purine-binding proteins. […] The ATP-Sepharose™ was washed several times, and then eluted with the compound of Formula III. The experiment was run in duplicate at concentrations of 20 μM, 100 μM, and 500 μM of the compound of Formula III. The eluted fractions were run on a 1-dimensional SDS polyacrylamide gel. Gels” for “Gels”

[5] = biological target: T4, DHFR (Homo sapiens, UniProt P00374); test: DHFR enzymatic assay; type: biochemical; details: determined by enzymatic assay
T4 sequence (P00374 1-187): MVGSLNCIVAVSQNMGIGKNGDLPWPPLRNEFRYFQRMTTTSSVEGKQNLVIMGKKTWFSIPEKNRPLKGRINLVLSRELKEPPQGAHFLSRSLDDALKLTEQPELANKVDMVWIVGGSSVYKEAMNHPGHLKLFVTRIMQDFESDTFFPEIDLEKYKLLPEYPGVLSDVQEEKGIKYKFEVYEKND

[6] = biological target: B-Raf (Homo sapiens, UniProt P15056); test: Elution of B-Raf from ATP-Sepharose column by compound (Proteome Mining), IC50 estimate; type: binding; details: estimated from percent of protein eluted from ATP-Sepharose column, gel densitometry; read-out: Approximate IC50 for B-Raf
Method: (§4) A proteome containing a known quantity of Her2, EGFR, and B-Raf was run over an ATP-Sepharose™ column in order to bind all purine-binding proteins. See, WO 00/63694 and U.S. Provisional Application No. 60/453,697 filed Jan. 22, 2003, each of which is incorporated by reference in its entirety. The ATP-Sepharose™ was washed several times, and then eluted with the compound of Formula III. The experiment was run in duplicate at concentrations of 20 μM, 100 μM, and 500 μM of the compound of Formula III. The eluted fractions were run on a 1-dimensional SDS polyacrylamide gel. Gels were stained with a fluorescent stain such as sypro ruby (a highly sensitive fluorescent protein stain that can readily detect less than 1 fmol of total protein, i.e., less than 0.04 ng for a 40 kDa protein). The gels were imaged using a standard flat bed gel imager and the amount of protein estimated by densiometry. The percent of protein eluted from the column at each concentration was determined and IC50 values were calculated from these estimates. Where necessary, the eluted proteins were cut out of the gel, and identified using mass spectral techniques.
(§5) These steps were repeated with each of the compounds of Formulas IV-X, MTX, and the c series derivative.

[7] = biological target: EGFR (Homo sapiens, UniProt P00533); test: Elution of EGFR from ATP-Sepharose column by compound (Proteome Mining), IC50 estimate; type: binding; details: estimated from percent of protein eluted from ATP-Sepharose column, gel densitometry; read-out: Approximate IC50 for EGFR
Method: as §4, §5

Sequence of EGFR (P00533 25-1210, species assumed): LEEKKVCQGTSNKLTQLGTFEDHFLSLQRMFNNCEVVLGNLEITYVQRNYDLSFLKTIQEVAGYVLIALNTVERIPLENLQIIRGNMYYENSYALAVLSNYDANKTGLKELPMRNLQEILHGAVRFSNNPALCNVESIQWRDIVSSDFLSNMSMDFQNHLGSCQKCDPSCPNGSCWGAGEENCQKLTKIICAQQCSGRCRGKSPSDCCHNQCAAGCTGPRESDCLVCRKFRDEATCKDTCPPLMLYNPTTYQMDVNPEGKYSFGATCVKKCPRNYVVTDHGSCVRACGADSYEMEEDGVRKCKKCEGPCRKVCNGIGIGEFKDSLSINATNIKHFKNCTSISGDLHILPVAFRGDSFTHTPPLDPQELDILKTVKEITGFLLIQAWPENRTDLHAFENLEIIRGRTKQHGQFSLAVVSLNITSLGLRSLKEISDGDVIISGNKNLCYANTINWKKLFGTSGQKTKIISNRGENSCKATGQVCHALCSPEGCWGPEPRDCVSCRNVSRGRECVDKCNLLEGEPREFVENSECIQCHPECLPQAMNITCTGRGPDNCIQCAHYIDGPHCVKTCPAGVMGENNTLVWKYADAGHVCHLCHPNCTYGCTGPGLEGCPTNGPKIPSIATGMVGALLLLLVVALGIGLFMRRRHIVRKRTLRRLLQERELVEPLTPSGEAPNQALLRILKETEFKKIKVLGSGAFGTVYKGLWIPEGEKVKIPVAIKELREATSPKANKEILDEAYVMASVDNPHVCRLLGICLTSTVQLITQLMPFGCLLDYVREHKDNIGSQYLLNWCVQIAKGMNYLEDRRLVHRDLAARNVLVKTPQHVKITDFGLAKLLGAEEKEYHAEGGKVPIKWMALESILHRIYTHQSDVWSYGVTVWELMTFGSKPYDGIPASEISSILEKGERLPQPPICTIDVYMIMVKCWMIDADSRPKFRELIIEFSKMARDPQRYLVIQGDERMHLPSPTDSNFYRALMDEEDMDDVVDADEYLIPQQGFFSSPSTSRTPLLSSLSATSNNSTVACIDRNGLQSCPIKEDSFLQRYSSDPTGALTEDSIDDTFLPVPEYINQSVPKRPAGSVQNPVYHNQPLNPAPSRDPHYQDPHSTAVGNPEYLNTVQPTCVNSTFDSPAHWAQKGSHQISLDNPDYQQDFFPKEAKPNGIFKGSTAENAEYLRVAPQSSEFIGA
Sequence of B-Raf (P15056 whole entry, species assumed): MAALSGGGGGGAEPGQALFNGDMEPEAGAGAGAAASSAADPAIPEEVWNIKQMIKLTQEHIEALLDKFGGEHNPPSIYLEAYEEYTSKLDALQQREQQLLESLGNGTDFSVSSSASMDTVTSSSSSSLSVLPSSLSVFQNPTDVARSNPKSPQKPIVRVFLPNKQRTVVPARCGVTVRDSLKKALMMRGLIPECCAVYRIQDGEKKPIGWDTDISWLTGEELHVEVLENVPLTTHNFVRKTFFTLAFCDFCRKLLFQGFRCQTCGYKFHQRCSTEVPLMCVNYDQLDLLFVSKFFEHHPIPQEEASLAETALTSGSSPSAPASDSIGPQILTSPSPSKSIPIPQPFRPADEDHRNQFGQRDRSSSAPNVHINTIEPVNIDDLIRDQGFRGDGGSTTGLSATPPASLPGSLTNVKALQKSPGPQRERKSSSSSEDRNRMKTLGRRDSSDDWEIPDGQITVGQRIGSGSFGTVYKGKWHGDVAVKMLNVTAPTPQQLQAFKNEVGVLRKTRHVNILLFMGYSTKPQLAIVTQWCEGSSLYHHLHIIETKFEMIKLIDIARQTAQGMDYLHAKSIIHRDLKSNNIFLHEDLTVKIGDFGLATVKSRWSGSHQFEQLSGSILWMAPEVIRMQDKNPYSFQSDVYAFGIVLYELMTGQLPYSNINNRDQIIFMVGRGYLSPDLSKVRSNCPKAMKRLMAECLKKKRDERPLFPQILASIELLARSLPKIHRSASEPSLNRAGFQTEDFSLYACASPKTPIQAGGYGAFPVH
Sequence of Her2 (P04626 23-1255, species assumed): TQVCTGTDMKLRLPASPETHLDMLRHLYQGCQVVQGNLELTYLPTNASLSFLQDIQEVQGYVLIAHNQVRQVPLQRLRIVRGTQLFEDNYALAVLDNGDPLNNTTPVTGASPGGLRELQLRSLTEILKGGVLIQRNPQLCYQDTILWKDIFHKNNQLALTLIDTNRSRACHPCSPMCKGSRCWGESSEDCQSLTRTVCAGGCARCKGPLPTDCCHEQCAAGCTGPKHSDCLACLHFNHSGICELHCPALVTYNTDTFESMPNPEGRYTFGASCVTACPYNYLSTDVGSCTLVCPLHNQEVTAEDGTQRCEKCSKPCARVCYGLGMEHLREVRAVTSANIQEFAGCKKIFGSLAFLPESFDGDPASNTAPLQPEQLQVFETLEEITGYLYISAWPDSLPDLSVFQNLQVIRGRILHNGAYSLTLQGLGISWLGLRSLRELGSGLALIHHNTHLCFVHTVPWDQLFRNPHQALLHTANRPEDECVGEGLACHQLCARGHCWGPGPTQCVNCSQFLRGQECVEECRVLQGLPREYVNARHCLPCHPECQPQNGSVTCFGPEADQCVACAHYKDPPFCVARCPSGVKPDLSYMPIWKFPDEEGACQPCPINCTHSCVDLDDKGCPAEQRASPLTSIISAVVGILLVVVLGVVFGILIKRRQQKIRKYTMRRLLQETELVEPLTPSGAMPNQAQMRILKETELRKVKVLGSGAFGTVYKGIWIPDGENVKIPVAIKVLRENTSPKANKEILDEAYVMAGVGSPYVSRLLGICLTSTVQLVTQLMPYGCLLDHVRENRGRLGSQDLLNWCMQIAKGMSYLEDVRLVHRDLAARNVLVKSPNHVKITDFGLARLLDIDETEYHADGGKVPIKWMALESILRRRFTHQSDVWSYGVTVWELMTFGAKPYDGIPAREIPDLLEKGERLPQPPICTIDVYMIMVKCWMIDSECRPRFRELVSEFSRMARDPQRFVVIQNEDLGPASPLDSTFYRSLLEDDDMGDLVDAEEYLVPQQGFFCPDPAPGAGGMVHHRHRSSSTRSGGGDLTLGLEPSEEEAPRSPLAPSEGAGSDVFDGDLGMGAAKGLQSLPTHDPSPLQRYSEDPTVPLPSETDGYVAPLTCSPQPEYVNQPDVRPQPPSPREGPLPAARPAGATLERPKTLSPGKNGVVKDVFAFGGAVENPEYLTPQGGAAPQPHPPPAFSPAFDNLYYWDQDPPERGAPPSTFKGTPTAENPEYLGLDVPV

CC(C)=CCN(Cc1cnc2nc(N)nc(N)c2n1)c1ccc(C(=O)NC(CCC(=O)O)C(=O)O)cc1C (stereo not drawn) [Formula VI]
pIC50 [1]: 6.30 | pIC50 [2]: 6.00 | pIC50 [3]: 6.00

Cc1cc(C(=O)NC(CCC(=O)O)C(=O)O)ccc1N(Cc1cnc2nc(N)nc(N)c2n1)CC1CC1 (stereo not drawn) [Formula V]
pIC50 [1]: 5.40 | pIC50 [2]: 5.70 | pIC50 [3]: 5.46 | pIC50 [4]: 5.30

CC(C)(C)CN(Cc1cnc2nc(N)nc(N)c2n1)c1ccc(C(=O)NC(CCC(=O)O)C(=O)O)cc1 (stereo not drawn) [Formula X]
pIC50 [1]: 5.36 | pIC50 [5]: 7.80 | pIC50 [2]: 5.60 | pIC50 [3]: 5.40

Cc1cc(C(=O)NC(CCC(=O)O)C(=O)O)ccc1N(Cc1cnc2nc(N)nc(N)c2n1)CC(C)(C)C (stereo not drawn) [Formula IV]
pIC50 [1]: 5.30 | pIC50 [5]: 7.77 | pIC50 [2]: 5.22 | pIC50 [3]: 5.00

CN(Cc1cnc2nc(N)nc(N)c2n1)c1ccc(C(=O)N[C@@H](CCC(=O)O)C(=O)O)cc1 [MTX, N-[4-[[(2,4-diamino-6-pteridinyl)methyl]methylamino]benzoyl]-L-glutamic acid, reference compound]
pIC50 [1]: 6.46 | pIC50 [6]: ≤ 5.00 | pIC50 [7]: < 4.82
